Experiments:
[1] = Wang Tingfang, Journal of Pharmaceutical Practice 2011; cited from earlier work
[2] = tested on: H9c2 cells; assay: Protective effect on A/R-induced H9c2 cell damage (MTT); format: cell-based; settings: hypoxia 12 hours, reoxygenation 4 hours, 490 nm, FIG. 17
Protocol: H9c2 cells were seeded in a 96-well plate and incubated at 37° C. in a 5% CO2 incubator for 24 hours, and then hypoxia was indicated. IND-023 of the drug group was diluted with KRB buffer as an anoxic solution into desired concentrations. The model group, after added only KRB solution with 50 μL in each well, was placed into the hypoxic box to be incubated for 12 hours, whereas, the blank group, after the initial medium was replaced with serum-free high glucose DMEM, was placed into a normal incubator. After the end of hypoxia, the medium of the model group was changed to serum-free high glucose DMEM. The drug group was diluted with high-glucose DMEM to corresponding concentrations with 100 μL each well, and was placed in a normal incubator and cultured for 4 hours. After the end of reoxygenation, the existing medium was removed and MTT was added. After 4 hours, the OD value was measured at 490 nm to calculate cell viability.

[3] = tested on: H9c2 cells; assay: Protective effect on t-BHP-induced H9c2 cell injury (MTT); format: cell-based; settings: pre-protected 1 hour, t-BHP 150 μM 12 hours, 490 nm, FIG. 18
Protocol: H9c2 cells were seeded in a 96-well plate in a density of 1×10^4 cells/well, and cultured in a DMEM complete medium for 24 hours. IND-023 was pre-protected for 1 hour, and then diluted t-BHP 150 μM with serum-free high glucose DMEM and induced for 12 hours. MTT (5 mg/mL) was added and cultured for 4 hours. Then, the medium was aspirated, and 100 μL, of DMSO was added to each well. The cells were homogenized by shaking in a shaking table and the absorbance was measured at a wavelength of 490 nm with a BioTek microplate reader to calculate the cell viability.

[4] = tested on: SD rat myocardial infarction model; assay: SD rat myocardial infarction model; format: in vivo; settings: 20 mg/kg via tail vein after modeling, read at 24 hours; FIG. 19
Protocol: A male SD rat was anesthetized with 2.5% isoflurane and fixed. Tracheotomy was performed, and the rat was connected to a ventilator and was cut at the position 0.5 cm on the left side of the sternal along the 2nd intercostal space and the 4th intercostal space 4. The subcutaneous tissue and muscle were bluntly dissected, and the chest was opened at the 4th intercostal space with forceps to expose the chest. The pericardium was carefully opened. The anterior descending branch of the left coronary artery was ligated with non-invasive suture needle No. 8 at the position of 2 to 3 mm from the lower edge of the left atrial appendage. The elevation of the ST segment of lead II ECG after the ligation was taken as an indication of a successful model. Throughout the experiment process, the rat was placed and kept warm on a 37° C. thermostatic table, and after waking up, the rat was placed into the original cage to continue feeding. After successful modeling, the rat was injected via tail vein for 15 min to give 20 mg/kg of IND-023 with a solution of 5% ethanol+5% polyethylene glycol+90% normal saline. […]

[5] = tested on: H9c2 cells; assay: Protective effect on IAA-induced H9c2 cell damage (MTT); format: cell-based; settings: pre-treatment 1 hour, IAA 50 μM 4 hours, 490 nm, FIG. 16
Protocol: H9c2 cells were seeded in a 96-well plate and incubated for 24 hours at 37° C. in a 5% CO2 incubator. Then, 100 μL it of IND-023 in different concentrations was added and subjected to prepreparation for 1 hour. After induction with IAA (50 μM) for 4 hours, MTT was added, and the absorbance was measured at 490 nm with a microplate reader.

SMILES | bioavailability [1] | protective effect on A/R-induced H9c2 cell injury [2] | protective effect on t-BHP-induced H9c2 cell injury [3] | protective effect on SD rat myocardial infarction model [4] | protective effect on IAA-induced H9c2 cell injury [5]
O=C(O)[C@H](O)Cc1ccc(O)c(O)c1 [Danshensu, Tanshinol] | 9.53-14.18% | – | – | – | –
Cc1nc(COC(=O)C(O)Cc2ccc(O)c(O)c2)c(C)nc1COC(=O)C(O)Cc1ccc(O)c(O)c1 (centres unmarked) [IND-023] | – | significant protective effect | significant protective effect | protective effect | significant protective effect
